# From a melting point compilation (Tetko et al.; mined from patent text by program, amines drawn as free bases though some values may be those of a salt)
row,melting point [°C],SMILES
1,179 to 181,CCOC(=O)c1cnc2c(NC(=O)c3c(Cl)cccc3Cl)cccc2c1CSc1ccncc1
2,184 to 188,CC(C)(C)OC(=O)N1CCC(c2cnc3oc(-c4ccc(C(F)(F)F)cc4)nc3c2)CC1
3,243 to 245,c1ccc2c(c1)NCc1c(-c3noc(C4CC4)n3)ncn1-2
4,192 to 194,CC(C)c1c(C(=O)Nc2ccccc2)c(-c2ccc(F)cc2)cn1-c1ccccc1
5,100 to 104,CC(C(=O)O)N(C(=O)OC(C)(C)C)c1ccc([N+](=O)[O-])cc1 (stereo not drawn)
6,201 to 203,Cn1nnc(-c2ccc3c(c2)c(C2=CCN(CCN4CCNC4=O)CC2)cn3-c2ccc(F)cc2)n1
7,163 to 164,COc1ccc(C(=O)Nc2ccc(F)cc2)cc1Nc1cccc(C(F)(F)F)c1
8,108 to 110,c1ccc2c(Sc3cccc4ccccc34)cccc2c1
9,94,CC#CCOc1cc(Oc2cccc(C(C)=O)c2)ncn1
10,194,CN(C)S(=O)(=O)c1ccc(-c2ccc(-c3ccc(S(=O)(=O)N(C)C)c(S)c3)cc2)cc1S
11,116 to 117,CC(CSC(=O)c1ccccc1)C(=O)N1c2ccccc2CC1C(=O)O (stereo not drawn)
12,155 to 157,O=C(O)CCCCCn1c(=O)c2ccccc2n(CCCCN2CCC(OC(c3ccccc3)c3ccccc3)CC2)c1=O
13,167 to 168,Cc1cc(CC(=O)O)[nH]c1C(=O)c1ccccc1
14,249,N#Cc1ccc(C=CC(=O)c2ccc(O)c(CC(=O)O)c2)cc1
15,132 to 134,COC(=O)c1ccc2c(c1)SCCCC2NC(=O)OCc1ccccc1 (stereo not drawn)
16,118,CCC1(O)CSC(=S)N1c1cccc(C)n1 (stereo not drawn)
17,90,CCCCCCN(C(=O)Cc1ccccc1)c1nnc(C)s1
18,140 to 142,Nc1cc2c(cc1[N+](=O)[O-])CCO2
19,159,COc1cc(Nc2nccc(-c3nccs3)n2)cc(OC)c1OC
20,92 to 95,CCN(C(=O)CCCCc1nnnn1C1CCCCC1)C1CCCCC1
21,268 to 269,O=[N+]([O-])c1ccc(NN=Cc2ncc[nH]2)nc1
22,228 to 229,COc1cc(OC)c(-c2cc3ccccc3s2)cc1/C=C/C(=O)c1ccc(C(=O)NC(C)=O)cc1
23,111 to 116,CC1(C)Oc2ccsc2C(N)C1O (stereo not drawn)
24,141 to 146,O=c1c(N2CCN(c3ccncc3)CC2)cn(Cc2ccccc2)c2cc(O)ccc12

row,melting point [°C],SMILES
1,303 to 305,CCCn1nc2c(N)nc3ncccc3c2c1CC
2,148 to 150,CCOCc1nc2c(N)nc(C)c(C)c2n1CCCNC(=O)OCC
3,104,OCc1ccc(CO)c(Br)c1
4,168 to 169,CC(C)(C)OC(=O)C[C@@H](NC(=O)/C=C/S(=O)(=O)c1ccccc1)C(=O)OC(C)(C)C
5,42 to 44,Fc1ccc(OCCCCCN2CCN(c3nccs3)CC2)cc1
6,> 300,COc1ccc(-c2[nH]nc3c2C(=O)c2c(NC(=O)CN4CCC(N(C)C)CC4)cccc2-3)cc1
7,165 to 169,CCOC(=O)C(C#N)=C1CCN(c2ccc(N3C[C@H](CNC(C)=O)OC3=O)cc2F)CC1
8,97 to 98,O=Cc1cc(Br)cc(Cc2cccnc2)c1
9,209,CC(=O)c1cncc(OC2SCC(O)C(O)C2O)c1 (stereo not drawn)
10,183,Cc1cc(COc2nn3c(-c4ccccc4F)nncc3c2-c2ccccc2F)nn1C
11,83 to 85,Cc1cc(C=Cc2ccccc2OCC(O)CNC(C)(C)C)on1 (stereo not drawn)
12,162 to 163,O=C1NCCC[C@@H]1NS(=O)(=O)c1ccc(F)cc1F
13,31 to 32,CCCCCCCCCCCCSCCC(=O)OC(CSCCCCCCCCCCCC)CSCCCCCCCCCCCC
14,118,COC(=O)CNC(=O)c1ccc2ccccc2c1
15,197 to 198,CC(C)n1nc(-c2cc(C#N)c(N)nc2-c2ccccc2)ccc1=O
16,149 to 150,O=C(CCc1ccccc1)N[C@H](Cc1ccc(C(F)(F)F)cc1)[C@@H](O)c1ccc(Cl)nc1 (racemic)
17,139 to 141,CCCCc1c(-c2ncccc2C(=O)O)n(-c2ccccc2)n(-c2ccccc2)c1=O
18,110 to 112,O=C(CCN1CCN(c2cccc(Cl)c2)CC1)N1CC2CC3CC(C2)CC1C3
19,144 to 146,COc1cc(I)ccc1C(=O)O
20,145 to 147,CC/C=C/CONC(=O)c1nc(-c2ccc(Cl)c(OC)c2F)cc(N)c1Cl
21,147,Cc1ccc(NC(=O)c2ccc(C(=O)Nc3ccccc3N)cc2)cc1Nc1nc(-c2cccnc2)cs1
22,69 to 70,Clc1csc(-c2nc(COc3ccc(CCCn4ccnc4)cc3)co2)c1
23,154 to 156,CCOC(=O)C(=NOC)c1nc(N)cc(Sc2ccccc2)n1
24,145 to 146,CC(C)(C)COc1c(-c2ccc(S(C)(=O)=O)cc2)cnn(CC(F)(F)F)c1=O

row,melting point [°C],SMILES
1,70 to 76,CCn1ncc(C(=O)c2ccc(S(C)(=O)=O)c(CO)c2Cl)c1O
2,149 to 151,CCOCc1nc2c(N)nc(C)c(C)c2n1NCc1ccccc1
3,143 to 145,COc1ccccc1C(Nc1ccncc1)c1ccccc1 (stereo not drawn)
4,< 60,OCc1c(F)ccc(-n2cccc2)c1F
5,182 to 185,CC(=O)N1CCN=C1Nc1c(Br)cccc1Br
6,100,CCCCCCCc1nnc(-c2ccc(O)cc2)s1
7,171 to 175,CN1CCN(CCCNc2ncc3cc(-c4c(Cl)cccc4Cl)c(NC(=O)Nc4ccc(Br)cc4)nc3n2)CC1
8,155 to 165,Cc1ccc(S(=O)(=O)ON=C2CCCc3occ(C(=O)O)c32)cc1
9,268 to 269,COc1cccc(C=C2SC(=S)NC2=O)c1OC
10,115 to 116,O=C(NCc1ccc2c(c1)OCO2)c1ccccc1
11,225 to 228,NC(=O)c1cccnc1Oc1cccc(Cl)c1
12,133 to 135,O=C1N[C@H](c2ccco2)[C@@H]1O
13,227 to 228,O=C(O)Cn1c(-c2ccccc2Cl)nc2cccnc21
14,154 to 156,CCCOc1ccc(CNc2cc(C(=O)Nc3ccccc3)ccc2OC)cc1
15,213 to 216,O=C(Cn1c(-c2ccc(Cl)cc2)nc2cccnc21)N1CCOCC1
16,96.5 to 97.5,CCON=C(c1ccccc1SCc1ccc(Cl)cc1)n1ccnc1
17,138 to 140,Cc1ccc(NC(=S)Nc2ncccc2OCc2c(F)cccc2Cl)cc1
18,210,CN1CCN(NC(=O)c2cc([N+](=O)[O-])cc3c2OCCO3)CC1
19,140 to 141,CC(=O)SCC(C)C(=O)N(CC(=O)O)Cc1ccco1 (stereo not drawn)
20,173 to 175,NCCNc1ncc2ncnc(Nc3ccc(F)c(Cl)c3)c2n1
21,79 to 81,OCc1cccc(C=Cc2cccc(-c3ccsc3)c2)c1
22,163,c1ccc(-c2cnc3cc4ccccc4cc3n2)cc1

row,SMILES,melting point [°C]
1,COC(=O)c1ccc(CC(C)NCC(O)c2ccc(O)c(CO)c2)cc1C (stereo not drawn),82 to 85
2,C=CCN1C2CCC3C1CCC2N3C(c1ccc(C(=O)N2CCCCC2)cc1)c1cccc(OC)c1 (stereo not drawn),94 to 96
3,C[C@H]1CCCC(C)(C)[C@@H]1[C@H](O)c1ccc(C#N)c(Cl)c1,116 to 118
